Test results reported in patent US20100056522A1, “INTRAOCULAR PRESSURE-LOWERING AGENT COMPRISING COMPOUND HAVING HISTONE DEACETYLASE INHIBITOR EFFECT AS ACTIVE INGREDIENT” (Santen Pharmaceutical Co., Ltd., priority 2007, published 2010).

Assays:
[1] = system: TM-1 cells (human trabecular meshwork cell line); test: Test for evaluation of effect of morphological change on trabecular meshwork cells (cell shape index); assay type: cell-based; details: 10 μM, 24 hours, control CSI 0.679, lower CSI indicates greater morphological change
Protocol: As a method for evaluating a cellular morphological change, an evaluation system using the cell shape index (hereinafter referred to as “CSI”) as an index has been reported in The Journal of Clinical Investigation, 103, 1141-1150 (1999). Therefore, according to the method described in the above document, an effect of morphological change by the present compounds on trabecular meshwork cells was evaluated.
A human trabecular meshwork cell line (hereinafter referred to as “TM-1 cells”) reported in Investigative Opthalmology & Visual Science, 43, 151-161 (2002) was used.
Culture medium 1: A reagent was prepared by adding fetal bovine serum (10%), L-glutamine (2 mM), amphotericin B (2.5 μg/mL), and gentamicin (25 μg/mL) to Dulbecco's Modified Eagle Medium (hereinafter referred to as “D-MEM”).
Culture medium 2: Fetal bovine serum (3%), L-glutamine (2 mM), amphotericin B (2.5 μg/mL), and gentamicin (25 μg/mL) were added to D-MEM.
Cell staining liquid: A mixed liquid of Calcein-AM (16 μM) and Hoechst 33342 (40 μM) was prepared by diluting a Calcein-AM solution (cytoplasmic staining reagent, manufactured by Dojindo Laboratories) and a Hoechst 33342 solution (nuclear staining reagent, manufactured by Dojindo Laboratories) with D-MEM containing L-glutamine (2 mM), amphotericin B (2.5 μg/mL), and gentamicin (25 μg/mL).
TM-1 cells subcultured at 37° C. in a 8% carbon dioxide gas atmosphere were treated with a trypsin/EDTA solution (0.05% trypsin and 0.53 mM tetrasodium ethylenediaminetetraacetate) at 24 hours before performing a drug treatment mentioned below and seeded on a 96-well culture plate. The culture medium 1 was used for the subculture of the cells. The culture medium 2 was used for the cell culture after seeding the cells on the plate.
A test compound was dissolved in dimethyl sulfoxide, whereby a 5 mM solution was prepared. Then, the resulting solution was diluted with the culture medium 2, whereby a 200 μM test compound solution was prepared.
It has been reported that Y-27632 which is a Rho kinase inhibitor induces a morphological change in trabecular meshwork cells in Investigative Opthalmology & Visual Science, 42, 137-144 (2001). Therefore, Y-27632 (produced according to the method described in WO 90/05723) was used as a positive control, and dissolved in dimethyl sulfoxide in the same manner as the test compound, whereby a 5 mM solution was prepared, and then, the resulting solution was diluted with the culture medium 2, whereby a 200 μM positive control compound solution was prepared.
1) To a 96-well culture plate, a solution of TM-1 cells adjusted to a cell density of […] was added in an amount of 95 μL (1.5×10^4 cells) per well.
2) Incubation was performed at 37° C. in a 8% carbon dioxide gas atmosphere for 24 hours.
3) The test compound solution or positive control compound solution was added in an amount of 5 μL per well (the final concentration of the test compound or positive control compound was 10 μM). As a control, the culture medium 2 containing dimethyl sulfoxide (4%) was added in an amount of 5 μL per well.
4) Incubation was performed at 37° C. in a 8% carbon dioxide gas atmosphere for 24 hours.
5) The cell staining liquid was added in an amount of 10 μL per well.
6) Incubation was performed at 37° C. in a 8% carbon dioxide gas atmosphere for 1 hour to stain the cells.
7) A 37% formaldehyde solution was added in an amount of 10 μL per well.
8) Incubation was performed at room temperature for 1 hour to fix the cells.
9) Washing with phosphate-buffered saline was performed.
10) Using Array Scan Vti HCS reader (manufactured by Cellomics), images of stained cells magnified with a 20-fold objective lens were captured in 80 fields (10 fields×8 wells) per test compound addition group.
11) CSI was calculated for each cell and an average value was obtained for each test compound addition group.
CSI was calculated using the following equation.
CSI=4π×(Cell Area)/(Cell Perimeter)^2

[2] = system: HDAC (HeLa nuclear extract); test: Test for evaluation of an HDAC inhibitory effect (HDAC Fluorimetric Assay/Drug Discovery Kit, Biomol); assay type: biochemical; details: final concentration of test compound 30 μM, rates of more than 100% are shown as 100%
Protocol: Using HDAC Fluorimetric Assay/Drug Discovery Kit (manufactured by Biomol), an HDAC inhibitory effect of the present compounds was measured according to the protocol included with the kit. The kit contains Buffer, HeLa nuclear extract (includes an HDAC), Substrate, Developer and Trichostatin A (an HDAC inhibitor).
A test compound was dissolved in dimethyl sulfoxide, whereby a 2 mg/mL solution was prepared. Then, the resulting solution was diluted with Buffer containing 5% dimethyl sulfoxide, whereby a 150 μM test compound solution was prepared.
1) To a 384-well culture plate, the test compound solution was added in an amount of 2 μL per well.
2) HeLa nuclear extract was diluted 30-fold with Buffer. The resulting solution was added in an amount of 3 μL per well and then, incubation was performed at 37° C. for 2 hours.
3) Substrate was diluted 500-fold with Buffer. The resulting solution was added in an amount of 5 μL per well (the final concentration of the test compound was 30 μM) and then, incubation was performed at 37° C. for 10 minutes.
4) Developer was diluted 20-fold with Buffer and Trichostatin A (2 μM) was added to it. The resulting solution was added in an amount of 10 μL per well and then, incubation was performed at room temperature for 15 minutes.
5) The fluorescence intensity of each well was measured using multilabel counter ARVO (manufactured by Wallac) with excitation at 360 nm and emission at 460 nm.
6) A control data was obtained from the same experiment except that Buffer containing 5% DMSO was added instead of the test compound solution as the above-mentioned procedure from 1) to 5).
7) A blank data was obtained from the same experiment except that Buffer containing 5% DMSO was added instead of the test compound solution and that Buffer was added instead of Hela nuclear extract as the above-mentioned procedure from 1) to 5).
Enzyme inhibitory rate (%) was calculated using the following equation.
(Enzyme Inhibitory Rate(%))=100×[1−{(Fluorescence Intensity of Test Compound Solution)−(Florescence Intensity of Blank)}/{(Florescence Intensity of Control)−(Florescence Intensity of Blank)}]

SMILES	CSI [1]	Enzyme Inhibitory Rate (%) [2] [%]
CN(C)CCCN(Cc1ccc(C(=O)Nc2ccccc2N)nc1)C(=O)Nc1ccc(C#N)cc1 [Compound 1-20, N-(2-Aminophenyl)-5-[3-(4-cyanophenyl)-1-(3-dimethylaminopropyl)ureidomethyl]pyridine-2-carboxylic acid amide]	0.516	99
CN(C)CCCN(Cc1ccc(C(=O)Nc2ccccc2N)nc1)C(=O)Nc1ccc2c(c1)OCCO2 [Compound 1-2, N-(2-Aminophenyl)-5-[3-(2,3-dihydrobenzo[1,4]dioxin-6-yl)-1-(3-dimethylaminopropyl)ureidomethyl]pyridine-2-carboxylic acid amide]	0.516	100
Cc1cc(NC(=O)N(CCCN(C)C)Cc2ccc(C(=O)Nc3ccccc3N)nc2)ccc1F [Compound 1-14, N-(2-Aminophenyl)-5-[1-(3-dimethylaminopropyl)-3-(4-fluoro-3-methylphenyl)ureidomethyl]pyridine-2-carboxylic acid amide]	0.520	100
N#Cc1ccc(NC(=O)N(CCCO)Cc2ccc(C(=O)Nc3ccccc3N)nc2)cc1 [Compound 1-24, N-(2-Aminophenyl)-5-[3-(4-cyanophenyl)-1-(3-hydroxypropyl)ureidomethyl]pyridine-2-carboxylic acid amide]	0.597	96
CN(C)CCCN(Cc1ccc(C(=O)Nc2ccccc2N)nc1)C(=O)Nc1nc2ccc(F)cc2s1 [Compound 1-44, N-(2-Aminophenyl)-5-[1-(3-dimethylaminopropyl)-3-(6-fluoro-1,3-benzothiazol-2-yl)ureidomethyl]pyridine-2-carboxylic acid amide]	0.554	98
Cc1cccc(NC(=O)N(CCCN2CCC(C)CC2)Cc2ccc(C(=O)Nc3ccccc3N)nc2)c1 [Compound 1-116, N-(2-Aminophenyl)-5-[3-(3-methylphenyl)-1-[3-(4-methylpiperidin-1-yl)propyl]ureidomethyl]pyridine-2-carboxylic acid amide]	0.455	100
COc1ccc(NC(=O)N(CCCN(C)C)Cc2ccc(C(=O)Nc3ccccc3N)nc2)cc1 [Compound 1-6, N-(2-Aminophenyl)-5-[1-(3-dimethylaminopropyl)-3-(4-methoxyphenyl)ureidomethyl]pyridine-2-carboxylic acid amide]	0.549	100
CN1CCN(CCCN(Cc2ccc(C(=O)Nc3ccccc3N)nc2)C(=O)Nc2ccc3c(c2)OCCO3)CC1 [Compound 1-68, N-(2-Aminophenyl)-5-[3-(2,3-dihydrobenzo[1,4]dioxin-6-yl)-1-[3-(4-methylpiperazin-1-yl)propyl]ureidomethyl]pyridine-2-carboxylic acid amide]	0.502	99
CCN(CC)c1ccc(NC(=O)N(CCCN(C)C)Cc2ccc(C(=O)Nc3ccccc3N)nc2)cc1 [Compound 2-3, N-(2-Aminophenyl)-5-[3-(4-diethylaminophenyl)-1-(3-dimethylaminopropyl)ureidomethy]pyridine-2-carboxylic acid amide]	0.550	100
COc1ccccc1NC(=O)N(CCCCN1CCOCC1)Cc1ccc(C(=O)Nc2ccccc2N)nc1 [Compound 1-115, N-(2-Aminophenyl)-5-[3-(2-methoxyphenyl)-1-[4-(morpholin-4-yl)butyl]ureidomethyl]pyridine-2-carboxylic acid amide]	0.467	97
CCOC(=O)CCN(Cc1ccc(C(=O)Nc2ccccc2N)nc1)C(=O)Nc1ccc(N(C)C)cc1 [Compound 1-27, N-(2-Aminophenyl)-5-[3-(4-dimethylaminophenyl)-1-(2-ethoxycarbonylethyl)ureidomethyl]pyridine-2-carboxylic acid amide]	0.624	97
Nc1ccccc1NC(=O)c1ccc(CN(CCCN2CCOCC2)C(=O)NCCc2ccccc2)cn1 [Compound 1-3, N-(2-Aminophenyl)-5-[1-[3-(morpholin-4-yl)propyl]-3-phenethylureidomethyl]pyridine-2-carboxylic acid amide]	0.569	100
CN1CCN(CCN(Cc2ccc(C(=O)Nc3ccccc3N)nc2)C(=O)Nc2cccc(F)c2)CC1 [Compound 1-63, N-(2-Aminophenyl)-5-[3-(3-fluorophenyl)-1-[2-(4-methylpiperazin-1-yl)ethyl]ureidomethyl]pyridine-2-carboxylic acid amide]	0.521	97
CN(C)c1ccc(NC(=O)N(CCCN2CCOCC2)Cc2ccc(C(=O)Nc3ccccc3N)nc2)cc1 [Compound 2-1, N-(2-Aminophenyl)-5-[3-(4-dimethylaminophenyl)-1-[3-(morpholin-4-yl)propyl]ureidomethyl]pyridine-2-carboxylic acid amide]	0.574	98
Nc1ccccc1NC(=O)c1ccc(CN(CCO)C(=O)Nc2ccc3c(c2)OCCO3)cn1 [Compound 2-10, N-(2-Aminophenyl)-5-[3-(2,3-dihydrobenzo[1,4]dioxin-6-yl)-1-(2-hydroxyethyl)ureidomethyl]pyridine-2-carboxylic acid amide]	0.582	99
CN(C)CCCN(Cc1ccc(C(=O)Nc2ccccc2N)nc1)C(=O)Nc1ccc(OC(F)(F)F)cc1 [Compound 1-21, N-(2-Aminophenyl)-5-[1-(3-dimethylaminopropyl)-3-(4-trifluoromethoxyphenyl)ureidomethyl]pyridine-2-carboxylic acid amide]	0.575	98
Nc1ccccc1NC(=O)c1ccc(CN(CCCO)C(=O)Nc2ccc3c(c2)OCO3)cn1 [Compound 1-25, N-(2-Aminophenyl)-5-[3-(benzo[1,3]dioxol-5-yl)-1-(3-hydroxypropyl)ureidomethyl]pyridine-2-carboxylic acid amide]	0.571	97
